Data on 2 compounds can be found in patent EP0019524A1, “Process for preparing flavilium derivatives, products obtained by the processus and their therapeutical application” (SOCIETE DE RECHERCHES INDUSTRIELLES SORI, priority 1979, dated 1980).

A short description of series [1]: Acute toxicity (LD50), method of Litchfield et al. Conditions: in vivo, ip; mouse, intraperitoneal route; read-out: DL-50 I.P. souris. The procedure:
La toxicité a été déterminée chez la souris par voie intrapéritonéale selon la méthode de J.T. LITCHFIELD et al., J. Pharmacol. Exptl. Therap. (1949), 96, 99. La DL-50 I.P. souris des produits III et IV est de 750 mg/kg. Les produits de formule (I) ne sont donc pas toxiques.

A further series concerns hématies. Description: Erythrocyte deformability: filtration rate of erythrocyte suspension and plasma (Schmid-Schönbein technique) in hyperlipidemic monkeys. Type of series: in vivo, singe. The conditions noted are these: monkeys on hyperlipidic diet, 20 mg/kg per os per day for 8 months, mean, 5 µ filter, 50 mm water pressure. The source says:
La déformabilité des hématies a été mesurée selon la technique de SCHMID-SCHONBEIN et al., Blut (1973), 26, 369-379, par filtration (diamètre des pores du filtre : 5µ) sous une pression constante de 50 mm d'eau, d'une suspension d'hématies amenée à un hématocrite de 10% par dilution dans un plasma autologue. La phase de suspension est également filtrée selon la même technique. On peut apprécier ainsi l'intensité de certaines maladies car le taux de filtration de la suspension d'hématies et/ou de la phase de plasma est modifié par les maladies du métabolisme telles que le diabète et l'hyperlipidémie.
Le taux de filtration des hématies a été déterminé in vivo chez le singe rendu hyperlipidémique après absorption d'un régime gras. Les composés à tester ont été administrés per os à la dose quotidienne de 20 mg/kg pendant 8 mois à des lots de singes : un lot recevant un régime normal, un lot recevant un régime gras, les autres lots recevant le régime gras et un des composés à tester. Les résultats donnés dans le tableau ci-après sont exprimés sous forme d'une moyenne et représentent la vitesse de filtration des hématies ou du plasma en µl/s. La signification statistique des résultats est très bonne (p <( 0,001).

For a further series, the system named is patients. Put plainly: Clinical trial in hyperlipidemic and hypertensive patients. The format is in vivo. The conditions noted are these: 21 days. How it is done:
On a résumé enfin les résultats des essais cliniques qui ont été entrepris avec le composé III pendant 21 jours sur 65 patients (30 patients étant hyperlipidiques et les 35 autres patients souffrant d'hypertension artérielle), un lot de patients recevant 3 comprimés ou 3 glossettes par jour renfermant chacun 10 mg de composé III, un autre lot recevant une injection quotidienne de 10 mg de composé III. La tolérance de ce produit s'est révélée excellente puisque la condition de 51 patients (c'est-à-dire 78,4%) a été considérablement améliorée.

Setting [2] is: of 65 patients (30 hyperlipidemic, 35 arterial hypertension), 3 x 10 mg oral/sublingual or 10 mg injection per day.

Molecules are shown by their SMILES.

Take `COc1cc(OC)c2cc(O[C@@H]3O[C@H](CO[C@@H]4O[C@@H](C)[C@H](O)[C@@H](O)[C@H]4O)[C@@H](O)[C@H](O)[C@H]3O)c(-c3ccc(OC)c(OC)c3)[o+]c2c1` [composé IV, chlorurede 3-[6-0-(6-désoxy-α-L-mannopyranosyl)-β-D-glucopyranosyloxy]-3',4', 5,7-tétraméthoxy-flavylium]: in series [1], the LD50 came out at 750 mg/kg.
With `C[C@@H]1O[C@@H](OC[C@H]2O[C@@H](Oc3cc4c(O)cc(O)cc4[o+]c3-c3ccc(O)c(O)c3)[C@H](O)[C@@H](O)[C@@H]2O)[C@H](O)[C@H](O)[C@H]1O` [composé III, chlorurede 3-[6-0-(6-désoxy-α-L-mannopyranosyl)-β-D-glucopy-ranosyloxy]-3',4',5,7-tétrahydroxy-flavylium], the LD50 in series [1] turned out to be 750 mg/kg. In the series on hématies, the “Vitesse de filtration du plasma” value is reported as 55,92 ± 4,78 µl/s. Also, the “Vitesse de filtration des hématies” value in the series with hématies (hematocrit 10%) is given as 43,97 ± 2,30 µl/s. Also, the tolérance entry in the series with patients (65 patients, 3 tablets or sublingual tablets of 10 mg per day, or one daily injection of 10 mg) is recorded as “excellente”. Besides, in the series on patients (setting [2]), the “patients dont la condition a été considérablement améliorée” value was 78,4% and the “patients dont la condition a été considérablement améliorée (nombre)” value was found to be 51 patients.
